What was measured:
RNA ac4C modification = test: ac4C RNA dot blot in SiHa cells; format: cell-based, human; details: 20 μM, 36 h, vs Remodelin-treated and NAT10-knockdown groups
Description: RNA was extracted from cells via an RNA extraction kit (TransGen, China) and denatured by heating to 65 °C for 5 min in the presence of 2× RNA denaturation buffer (Solarbio, China) followed by an equal amount of 20x SSC buffer (Beyotime, China). A nylon membrane (Yeasen, China) was used to immobilize the denatured RNA by dotting RNA samples onto the membrane and cross-linking the RNA to the membrane via UV light. The samples were stained with methylene blue and photographed. Furthermore, the membrane was blocked with 5% milk and incubated with an anti-ac4C primary antibody (1:1000, Abcam, US) for 12 h. After the unbound primary antibody was washed away, the membrane was incubated with a secondary antibody (1:6000, Elabscience, China). The membrane was then washed to remove unbound secondary antibodies, and a detection reagent (Bio-Rad, US) was added to visualize the RNA bands via chemiluminescence with a ChemiDoc MP Imaging System (Bio-Rad, US).

NAT10 = target: T1, NAT10 (Homo sapiens, UniProt Q9H0A0); test: NAT10 degradation in SiHa cells, Western blot; format: cell-based
T1 construct: depletion of total NAT10 protein in SiHa (human) and U14 (murine) CCa cell lines; endogenous in cells; host or cells: SiHa (human cervical cancer cell line)
T1 sequence (Q9H0A0 1-1025): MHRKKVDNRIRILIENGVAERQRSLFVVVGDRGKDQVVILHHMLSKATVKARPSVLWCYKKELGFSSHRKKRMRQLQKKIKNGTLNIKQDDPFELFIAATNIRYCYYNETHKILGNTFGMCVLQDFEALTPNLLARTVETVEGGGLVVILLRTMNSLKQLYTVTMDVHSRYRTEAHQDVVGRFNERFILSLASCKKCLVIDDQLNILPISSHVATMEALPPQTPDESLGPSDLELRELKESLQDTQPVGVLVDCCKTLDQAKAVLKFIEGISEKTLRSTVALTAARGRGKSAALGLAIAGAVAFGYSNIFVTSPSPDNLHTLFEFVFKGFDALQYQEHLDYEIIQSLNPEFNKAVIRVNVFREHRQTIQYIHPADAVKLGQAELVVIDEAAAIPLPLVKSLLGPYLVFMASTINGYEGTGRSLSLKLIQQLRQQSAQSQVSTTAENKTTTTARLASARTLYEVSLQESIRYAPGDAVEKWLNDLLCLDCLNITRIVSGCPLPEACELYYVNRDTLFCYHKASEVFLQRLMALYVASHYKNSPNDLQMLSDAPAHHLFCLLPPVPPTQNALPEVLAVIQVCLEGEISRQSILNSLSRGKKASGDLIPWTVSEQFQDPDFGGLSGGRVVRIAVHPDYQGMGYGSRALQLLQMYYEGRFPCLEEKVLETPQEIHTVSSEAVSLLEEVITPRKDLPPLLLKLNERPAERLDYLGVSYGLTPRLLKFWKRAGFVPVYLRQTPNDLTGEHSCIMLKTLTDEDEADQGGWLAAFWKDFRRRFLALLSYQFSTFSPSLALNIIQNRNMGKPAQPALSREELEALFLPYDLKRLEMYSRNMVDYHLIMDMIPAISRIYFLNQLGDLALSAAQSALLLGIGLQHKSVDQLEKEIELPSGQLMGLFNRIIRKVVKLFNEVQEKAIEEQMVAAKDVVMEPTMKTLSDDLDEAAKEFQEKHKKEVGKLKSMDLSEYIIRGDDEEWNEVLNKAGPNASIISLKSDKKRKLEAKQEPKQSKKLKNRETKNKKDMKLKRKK
Description: The human CCa cell line SiHa and the normal epithelial foreskin fibroblast line HFF-1 were purchased from the Cell Bank of the Chinese Academy of Sciences. Additionally, murine cervical carcinoma cell line U14 (RRID:CVCL_9U56) was purchased from Boster Company. HFF-1 and U14 cells were cultured in Dulbecco’s modified Eagle’s medium (DMEM) (Gibco, USA) supplemented with 10% heat-inactivated fetal bovine serum (FBS; Gibco, USA), while SiHa cells were incubated in RPMI 1640 medium (Gibco, USA) in a humid atmosphere with 5% CO2 at 37 °C. For hypoxia exposure, the cells were incubated in a sealed culture tank containing 5% CO2 and 0.1% O2 (MGC, Japan) for 36 h.
(§1) RIPA lysis buffer (Beyotime, China) mixed with 1% protease inhibitor (Sigma, US) was added to the cells, and a sample of total protein was obtained and then loaded onto an 8% or 12% polyacrylamide gel. The gel was placed in a buffer solution, and an electric current was applied. The separated proteins were subsequently transferred from the gel onto a PVDF membrane. Next, the membrane was blocked with 5% milk for 1 h to prevent nonspecific antibody binding. The membranes were subsequently incubated with anti-NAT10 (1:1000, Abcam, USA), anti-PD-L1 (1:1000, Proteintech, China), anti-HIF-1α (1:1000, Abmart, China), and anti-β-tubulin (1:1000, Proteintech, China) primary antibodies for 12 h. Afterward, the membrane was sequentially washed with 1× TBST and incubated for 1 h with an antimouse secondary antibody (1:6000, Elabscience, China) or antirabbit secondary antibody (1:6000, Elabscience, China). The target proteins were detected via chemiluminescence with a ChemiDoc MP Imaging System (Bio-Rad, US).

PD-L1 = PD-L1 protein level in SiHa cells, Western blot; format: cell-based, human; details: 36 h
Description: as §1

normal organoids = test: Normal organoids exposed to NP1192; format: cell-based, human; details: following NP1192 exposure
Description: Organoid culture was performed according to previously established protocols. Briefly, we procured patient-derived tissue samples provided and technically manipulated by Accurate International Biotechnology Co., Ltd. Subsequently, these samples were subjected to mechanical and enzymatic dissociation to disaggregate the tissue into single cells or small clusters, while preserving cellular integrity. Following this initial step, the isolated cells or tissue fragments were embedded within a 3D ECM scaffold, such as Matrigel or collagen. The ECM scaffold served as a supportive substrate, promoting cellular self-organization and mimicking native tissue architecture. Additionally, a precisely formulated cocktail of growth factors, cytokines, and signaling molecules tailored to the specific tissue of interest was meticulously formulated and added to the culture medium to facilitate organoid growth and maintenance.

SiHa cells = test: Colony formation assay in SiHa cells; format: cell-based, human; details: pretreated 20 μM 36 h, 2 weeks
Description: NAT10^± SiHa cells and SiHa cells treated with DMSO, Remodelin or NP1192 for 36 h were seeded into the wells of a 6-well microplate at identical densities of 2000 or 3000 cells per well. The cells were then incubated in the incubator for at least 2 weeks to form colonies. After the incubation period, the cells were fixed with formalin and then stained with crystal violet. The colonies were then counted via a microscope. The number and size of the colonies in the experimental groups were compared.

N#Cc1ccc(-c2csc(N(CCCCCCC(=O)N3CCN(c4cccc5c4C(=O)N(C4CCC(=O)NC4=O)C5=O)CC3)N=C3CCCC3)n2)cc1 (stereo not drawn) [NP1192]
RNA ac4C levels (RNA ac4C modification): significant reduction in ac4C levels
NAT10 degradation rate (NAT10; SiHa cells, 1.25 μM, 36 h): 28%
NAT10 degradation rate (NAT10; SiHa cells, 2.5 μM, 36 h): 32%
NAT10 degradation rate (NAT10; SiHa cells, 5 μM, 36 h): 40%
NAT10 degradation rate (NAT10; SiHa cells, 10 μM, 36 h): 43%
NAT10 degradation rate (maximum) (NAT10; SiHa cells, 20 μM, 36 h): 69%
NAT10 degradation (NAT10; SiHa cells, after 24 h): 20%
NAT10 degradation rate (NAT10; SiHa cells, panel TP1–32 at the same time and concentration, Figure 1E): 71%
hook effect in NAT10 degradation (NAT10; concentrations as high as 20 μM): did not exhibit the classical hook effect
PD-L1 protein level (PD-L1): pronounced downregulation of PD-L1
architecture and cellular integrity of normal organoids (normal organoids): remained unaltered
colony formation capacity (SiHa cells): substantial decrease in colony formation capacity

Source: publication PMC12670317, “Targeted NAT10 Degradation by PROTAC NP1192 Suppresses Hypoxia-Adaptive Glycolysis and Reinvigorates CD8^+ Effector T‑Cell Function for Synergistic Cancer Immunotherapy” (ACS Central Science, 2025)
